The subject of the test is HEK293. As to the kind of experiment: Inhibition of Ca2+ release activated Ca2+ channels in thapsigarin-treated HEK cells. The class given is cell-based. The following applies: Homo sapiens.

In ChEMBL document CHEMBL1149904, “Isolation and structure determination of malevamide E, a dolastatin 14 analogue, from the marine cyanobacterium Symploca laete-viridis” (J Nat Prod, 2008) one finds Activity data, which are given here for 1 compound.

With `CNC(=O)C[C@H]1C(=O)N(C)[C@@H](C)C(=O)OC(C)CCC/C=C/CCC(OC)C/C=C/C=C(\C)C(=O)N[C@H](C(C)C)C(=O)N(C)[C@@H](Cc2ccccc2)C(=O)N(C)[C@@H](C(C)C)C(=O)N(C)[C@@H](C(C)C)C(=O)N2CCC[C@H]2C(=O)N1C` (stereo partly specified), the Activity entry is “Dose-dependent effect”.
